Results published in US20210077592A1, “COMPOSITION TO PREVENT INTESTINAL DAMAGE” (FUSION FARM S.R.L. SEMPLIFICATA, priority 2017, published 2021).

Experiments:
Assay type in all cases: cell-based
[1] = test system: Occludin and Zonula Occludens in Caco-2 cells; experiment: Fluorescence immunolabeling of Occludin and Zonula Occludens in Caco-2 cells after damage induction; settings: pretreatment 60 h without glutamine, then 60 mM ethanol 4 h
Method: As it can be seen by FIG. 1, the damage induced an increase in permeability. The same cells without damage induction (NC) and with damage induction (PC), as indicated above, were further evaluated by fluorescence immunolabeling of Occludina and Zonula Occludens (proteins present in the intestinal membrane intracellular junctions).
(§1) According to the experimental protocol, to evaluate the efficacy of the composition of the invention in damage prevention, sodium butyrate (2 mM concentration) and lactoferrin (400 μg/ml concentration), either alone or in combination, were applied on Caco-2 cells during stress induced by absence of glutamine, increasing the time of said deprivation, with respect to the conditions tested during the development of the model, and therefore of stress induction, to 60 hours, to make more evident differences in cells behavior in the different treatment situations. At the end of 60 hours, the products were removed, and damage was induced for 4 h with 60 mM ethanol. The parameters were evaluated at the end.
To confirm the observed behavior, an evaluation using fluorescence immunolabeling of Occludin and Zonula Occludens was also performed.

Caco-2 cells [2] = experiment: Lucifer Yellow (LY) assay of paracellular permeability in Caco-2 intestinal damage model
Method: A protocol was developed based on Caco-2 cell inserts model (CACOREADY™ cells, lot no. 24 676 101716 and no. 24 680 111416, Readycell manufacturer) consisting in two steps:
1. Induction of epithelial damage (40 h incubation in glutamine free medium followed by stress induced by 60 mM ethanol for 4 h)
2. Evaluation of the single products first, and then applied in combination during stress induced by the absence of glutamine (60 h), and with subsequent stress induced by ethanol, to evaluate the efficacy in preventing damage. […]
Cells without damage induction (NC=without damage) and with damage induction (PC) were evaluated with the Lucifer Yellow (LY) assay, which verifies the integrity of the cellular junctions in presence of the test substance. […]
as §1, with “At the end of 60 hours, the products were removed, and damage was induced for 4 h with 60 mM ethanol.” left out, “end. […]” for “end.”

Caco-2 cells [3] = experiment: Electron Microscopy (SEM) of microvilli of Caco-2 cells after damage induction; settings: pretreatment 60 h without glutamine, then 60 mM ethanol 4 h, 750x-10000x
Method: The same cells without damage induction (NC) and with damage induction (PC), as indicated above, were finally evaluated by Electron Microscopy (SEM) at different magnifications.
as §1
The same cells were finally evaluated also by Electron Microscopy SEM, at various magnifications.

CCCC(=O)[O-].[Na+] [sodium butyrate, reference compound]
fluorescence intensity / expression of tight junction proteins (Occludin, Zonula Occludens), result in words [1]: lower expression of the tight junctions' proteins
increase in LY flux (permeability) (Caco-2 cells [2]; 2 mM sodium butyrate alone during 60 h glutamine deprivation, then 60 mM ethanol 4 h): over 51%
permeability (LY), result in words (Caco-2 cells [2]; treatment at the same time as damage induction): significant increase in permeability
effect on microvilli / villous atrophy by SEM, result in words (Caco-2 cells [3]): did not have any effect in combating the partial villous atrophy
